US20250154686A1, “COMPOUND LIBRARY” (CHUGAI SEIYAKU KABUSHIKI KAISHA, priority 2021, published 2025)

Target: T1, Bcl-2 protein (Recombinant Human Bcl-2 Protein) (Homo sapiens, UniProt P10415)
T1 construct: purchased Novus Biologicals NBP2-34889
Experiment: AS-MS evaluation of binding of the Example 4 mixture library (1200 compounds/well) to Bcl-2, ASMS ratio (%)
Conditions: AS-MS, Example 4 mixture library; for ASMS ratio (%) n = 1: Bcl-2, replicate n = 1; for ASMS ratio (%) n = 2: Bcl-2, replicate n = 2
Outline: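 Affinity-selection MS: after spin-column size exclusion and organic extraction, LC/MS signals give an ASMS ratio (%), referenced to protein-free samples with and without column treatment. Binding step combined 20 μM human Bcl-2 with the 1200-compound pool at 20 nM per compound, 1 h, 23° C., dark, pH 7.4 Tris-HCl/NaCl/Tween-20/DTT.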

T1 sequence (P10415 whole entry): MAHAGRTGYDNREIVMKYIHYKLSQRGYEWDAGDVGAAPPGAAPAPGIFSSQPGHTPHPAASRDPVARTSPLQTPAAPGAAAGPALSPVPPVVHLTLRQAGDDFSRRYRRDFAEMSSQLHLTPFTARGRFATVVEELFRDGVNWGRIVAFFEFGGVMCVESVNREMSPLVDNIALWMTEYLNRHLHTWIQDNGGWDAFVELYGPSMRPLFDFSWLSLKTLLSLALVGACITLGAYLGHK

SMILES	ASMS ratio (%) n = 1	ASMS ratio (%) n = 2
CCOc1cccc(-c2ccc(CN3CCN(c4ccc(C(=O)NS(=O)(=O)c5ccc(NCCSc6ccccc6)c(C(F)(F)F)c5)cc4)CC3)c3ccccc23)c1 [Compound B2R065-01, 4-[4-[[4-(3-Ethoxyphenyl)naphthalen-1-yl]methyl]piperazin-1-yl]-N-[4-(2-phenylsulfanylethylamino)-3-(trifluoromethyl)phenyl]sulfonylbenzamide]	3.8%	0.3%
CCOc1cncc(-c2ccc(CN3CCN(c4ccc(C(=O)NS(=O)(=O)c5ccc(NCCSc6ccccc6)c(C(F)(F)F)c5)cc4)CC3)c3ccccc23)c1 [Compound B2R066-01, 4-[4-[[4-(5-Ethoxypyridin-3-yl)naphthalen-1-yl]methyl]piperazin-1-yl]-N-[4-(2-phenylsulfanylethylamino)-3-(trifluoromethyl)phenyl]sulfonylbenzamide]	19.8%	−10.7%
CCOc1cccc(-c2csc(CN3CCN(c4ccc(C(=O)NS(=O)(=O)c5ccc(NCCSc6ccccc6)c(C(F)(F)F)c5)cc4)CC3)c2)c1 [Compound B2R067-01, 4-[4-[[4-(3-Ethoxyphenyl)thiophen-2-yl]methyl]piperazin-1-yl]-N-[4-(2-phenylsulfanylethylamino)-3-(trifluoromethyl)phenyl]sulfonylbenzamide]	8.0%	0.0%
CCOc1cncc(-c2csc(CN3CCN(c4ccc(C(=O)NS(=O)(=O)c5ccc(NCCSc6ccccc6)c(C(F)(F)F)c5)cc4)CC3)c2)c1 [Compound B2R068-01, 4-[4-[[4-(5-Ethoxypyridin-3-yl)thiophen-2-yl]methyl]piperazin-1-yl]-N-[4-(2-phenylsulfanylethylamino)-3-(trifluoromethyl)phenyl]sulfonylbenzamide]	0.0%	0.0%
CCOc1cccc(C#Cc2ccccc2CN2CCN(c3ccc(C(=O)NS(=O)(=O)c4ccc(NCCSc5ccccc5)c(C(F)(F)F)c4)cc3)CC2)c1 [Compound B2R069-01, 4-[4-[[2-[2-(3-Ethoxyphenyl)ethynyl]phenyl]methyl]piperazin-1-yl]-N-[4-(2-phenylsulfanylethylamino)-3-(trifluoromethyl)phenyl]sulfonylbenzamide]	12.3%	−18.5%
CCOc1cccc(-c2ccccc2CN2CCN(c3ccc(C(=O)NS(=O)(=O)c4ccc(NCCSc5ccccc5)c(C(F)(F)F)c4)nn3)CC2)c1 [Compound B2R071-01]	14.3%	−9.0%
CCOc1cncc(-c2ccccc2CN2CCN(c3ccc(C(=O)NS(=O)(=O)c4ccc(NCCSc5ccccc5)c(C(F)(F)F)c4)nn3)CC2)c1 [Compound B2R072-01]	21.4%	11.4%
CCOc1cccc(-c2ccc(CN3CCN(c4ccc(C(=O)NS(=O)(=O)c5ccc(NCCSc6ccccc6)c(C(F)(F)F)c5)nn4)CC3)cc2C)c1 [Compound B2R073-01, 6-[4-[[4-(3-Ethoxyphenyl)-3-methylphenyl]methyl]piperazin-1-yl]-N-[4-(2-phenylsulfanylethylamino)-3-(trifluoromethyl)phenyl]sulfonylpyridazine-3-carboxamide]	24.0%	0.0%
CCOc1cccc(-c2ccc(CN3CCN(c4ccc(C(=O)NS(=O)(=O)c5ccc(NCCSc6ccccc6)c(C(F)(F)F)c5)nn4)CC3)c(CC)c2)c1 [Compound B2R075-01, 6-[4-[[4-(3-Ethoxyphenyl)-2-ethylphenyl]methyl]piperazin-1-yl]-N-[4-(2-phenylsulfanylethylamino)-3-(trifluoromethyl)phenyl]sulfonylpyridazine-3-carboxamide]	8.6%	0.0%
CCOc1cccc(-c2ccc(CN3CCN(c4ccc(C(=O)NS(=O)(=O)c5ccc(NCCSc6ccccc6)c(C(F)(F)F)c5)nn4)CC3)cc2F)c1 [Compound B2R077-01, 6-[4-[[4-(3-Ethoxyphenyl)-3-fluorophenyl]methyl]piperazin-1-yl]-N-[4-(2-phenylsulfanylethylamino)-3-(trifluoromethyl)phenyl]sulfonylpyridazine-3-carboxamide]	0.0%	0.0%
CCOc1cccc(-c2cc(CN3CCN(c4ccc(C(=O)NS(=O)(=O)c5ccc(NCCSc6ccccc6)c(C(F)(F)F)c5)nn4)CC3)cc(OCC)c2)c1 [Compound B2R081-01]	21.1%	−8.8%
CCOc1cccc(-c2cc(CN3CCN(c4ccc(C(=O)NS(=O)(=O)c5ccc(NCCSc6ccccc6)c(C(F)(F)F)c5)nn4)CC3)cc(OC(C)C)c2)c1 [Compound B2R083-01, 6-[4-[[3-(3-Ethoxyphenyl)-5-propan-2-yloxyphenyl]methyl]piperazin-1-yl]-N-[4-(2-phenylsulfanylethylamino)-3-(trifluoromethyl)phenyl]sulfonylpyridazine-3-carboxamide]	31.9%	−11.1%
CCOc1cccc(-c2ccc(CN3CCN(c4ccc(C(=O)NS(=O)(=O)c5ccc(NCCSc6ccccc6)c(C(F)(F)F)c5)nn4)CC3)c3ccccc23)c1 [Compound B2R091-01, 6-[4-[[4-(3-Ethoxyphenyl)naphthalen-1-yl]methyl]piperazin-1-yl]-N-[4-(2-phenylsulfanylethylamino)-3-(trifluoromethyl)phenyl]sulfonylpyridazine-3-carboxamide]	−3.5%	1.8%

Results, then the molecule that gave them:

ASMS ratio (%) n = 1	ASMS ratio (%) n = 2	SMILES
22.4%	25. %	CCOc1cncc(-c2ccc(CN3CCN(c4ccc(C(=O)NS(=O)(=O)c5ccc(NCCSc6ccccc6)c(C(F)(F)F)c5)nn4)CC3)cc2C)c1 [Compound B2R074-01, 6-[4-[[4-(5-ethoxypyridin-3-yl)-3-methylphenyl]methyl]piperazin-1-yl]-N-[4-(2-phenylsulfanylethylamino)-3-(trifluoromethyl)phenyl]sulfonylpyridazine-3-carboxamide]
3.9%	19.7%	CCOc1cncc(-c2ccc(CN3CCN(c4ccc(C(=O)NS(=O)(=O)c5ccc(NCCSc6ccccc6)c(C(F)(F)F)c5)nn4)CC3)c(CC)c2)c1 [Compound B2R076-01]
15.8%	11.7%	CCOc1cncc(-c2ccc(CN3CCN(c4ccc(C(=O)NS(=O)(=O)c5ccc(NCCSc6ccccc6)c(C(F)(F)F)c5)nn4)CC3)cc2F)c1 [Compound B2R078-01, 6-[4-[[4-(5-Ethoxypyridin-3-yl)-3-fluorophenyl]methyl]piperazin-1-yl]-N-[4-(2-phenylsulfanylethylamino)-3-(trifluoromethyl)phenyl]sulfonylpyridazine-3-carboxamide]
16.7%	21.2%	CCOc1cncc(-c2ccc(CN3CCN(c4ccc(C(=O)NS(=O)(=O)c5ccc(NCCSc6ccccc6)c(C(F)(F)F)c5)nn4)CC3)c(OC)c2)c1 [Compound B2R080-01, 6-[4-[[4-(5-Ethoxypyridin-3-yl)-2-methoxyphenyl]methyl]piperazin-1-yl]-N-[4-(2-phenylsulfanylethylamino)-3-(trifluoromethyl)phenyl]sulfonylpyridazine-3-carboxamide]
0.0%	0.0%	CCOc1cncc(-c2cc(CN3CCN(c4ccc(C(=O)NS(=O)(=O)c5ccc(NCCSc6ccccc6)c(C(F)(F)F)c5)nn4)CC3)cc(OCC)c2)c1 [Compound B2R082-01]
0.0%	0.0%	CCOc1cncc(-c2cc(OC)c(CN3CCN(c4ccc(C(=O)NS(=O)(=O)c5ccc(NCCSc6ccccc6)c(C(F)(F)F)c5)nn4)CC3)c(OC)c2)c1 [Compound B2R086-01, 6-[4-[[4-(5-Ethoxypyridin-3-yl)-2,6-dimethoxyphenyl]methyl]piperazin-1-yl]-N-[4-(2-phenylsulfanylethylamino)-3-(trifluoromethyl)phenyl]sulfonylpyridazine-3-carboxamide]
3.8%	7.1%	CCOc1cccc(-c2cc(CN3CCN(c4ccc(C(=O)NS(=O)(=O)c5ccc(NCCSc6ccccc6)c(C(F)(F)F)c5)nn4)CC3)cc(C(F)(F)F)c2)c1 [Compound B2R087-01]
35.3%	13.1%	CCOc1cncc(-c2cc(CN3CCN(c4ccc(C(=O)NS(=O)(=O)c5ccc(NCCSc6ccccc6)c(C(F)(F)F)c5)nn4)CC3)cc(C(F)(F)F)c2)c1 [Compound B2R088-01, 6-[4-[[3-(5-Ethoxypyridin-3-yl)-5-(trifluoromethyl)phenyl]methyl]piperazin-1-yl]-N-[4-(2-phenylsulfanylethylamino)-3-(trifluoromethyl)phenyl]sulfonylpyridazine-3-carboxamide]
3.4%	−9.2%	CCOc1cccc(-c2cc(CN3CCN(c4ccc(C(=O)NS(=O)(=O)c5ccc(NCCSc6ccccc6)c(C(F)(F)F)c5)nn4)CC3)cc(OC(F)(F)F)c2)c1 [Compound B2R089-01, 6-[4-[[3-(3-Ethoxyphenyl)-5-(trifluoromethoxy)phenyl]methyl]piperazin-1-yl]-N-[4-(2-phenylsulfanylethylamino)-3-(trifluoromethyl)phenyl]sulfonylpyridazine-3-carboxamide]
22.4%	5.3%	CCOc1cncc(-c2cc(CN3CCN(c4ccc(C(=O)NS(=O)(=O)c5ccc(NCCSc6ccccc6)c(C(F)(F)F)c5)nn4)CC3)cc(OC(F)(F)F)c2)c1 [Compound B2R090-01, 6-[4-[[3-(5-Ethoxypyridin-3-yl)-5-(trifluoromethoxy)phenyl]methyl]piperazin-1-yl]-N-[4-(2-phenylsulfanylethylamino)-3-(trifluoromethyl)phenyl]sulfonylpyridazine-3-carboxamide]
